# How the values were obtained:
# Experiment in all cases: Kinase panel profiling
# Format in all cases: biochemical
# Conditions in all cases: 10 μM ATP
# ARAF = molecular target: T1, ARAF (Homo sapiens, UniProt P10398)
# T1 construct: purchased Reaction Biology Corp
# Method: (§1) Kinase panel profiling was conducted by Reaction Biology Corp. (San Diego, CA, USA). A single dose (1.0 μM) of 6r was tested against 371 recombinant human kinases in the presence of 10 μM ATP.
# CAMK1b = molecular target: T2, CAMK1b (Homo sapiens, UniProt Q6P2M8)
# T2 construct: purchased Reaction Biology Corp
# Method: as §1
# CAMK2b = molecular target: T3, CAMK2b (Homo sapiens, UniProt Q13554)
# T3 construct: purchased Reaction Biology Corp
# Method: as §1
# CDK17/cyclin Y (PCTK2) = molecular target: T4, CDK17/cyclin Y (PCTK2) (Homo sapiens, UniProt Q00537)
# T4 construct: purchased Reaction Biology Corp
# Method: as §1
# CDK2/CYCLIN E = molecular target: T5, CDK2/CYCLIN E (Homo sapiens, UniProt P24941)
# T5 construct: purchased Reaction Biology Corp
# Method: as §1
# CDK8/cyclin C = molecular target: T6, CDK8/cyclin C (Homo sapiens, UniProt P49336)
# T6 construct: purchased Reaction Biology Corp
# Method: as §1
# CK1g1 = molecular target: T7, CK1g1 (Homo sapiens, UniProt Q9HCP0)
# T7 construct: purchased Reaction Biology Corp
# T7 sequence (Q9HCP0 whole entry): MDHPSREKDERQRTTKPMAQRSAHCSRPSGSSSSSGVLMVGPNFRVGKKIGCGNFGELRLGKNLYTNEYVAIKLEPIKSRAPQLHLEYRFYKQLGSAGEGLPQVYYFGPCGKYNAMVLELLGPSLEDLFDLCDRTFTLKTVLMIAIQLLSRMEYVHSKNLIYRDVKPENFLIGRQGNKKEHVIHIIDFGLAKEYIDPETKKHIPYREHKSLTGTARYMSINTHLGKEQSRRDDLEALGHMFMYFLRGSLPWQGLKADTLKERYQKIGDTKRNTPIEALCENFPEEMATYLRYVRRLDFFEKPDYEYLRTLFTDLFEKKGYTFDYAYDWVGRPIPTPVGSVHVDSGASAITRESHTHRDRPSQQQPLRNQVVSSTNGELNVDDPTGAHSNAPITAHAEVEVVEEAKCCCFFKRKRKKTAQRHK
# Method: as §1
# DMPK2 = molecular target: T8, DMPK2 (Homo sapiens, UniProt Q6DT37)
# T8 construct: purchased Reaction Biology Corp
# Method: as §1
# DYRK1B = molecular target: T9, DYRK1B (Homo sapiens, UniProt Q9Y463)
# T9 construct: purchased Reaction Biology Corp
# Method: as §1
# EPHA1 = molecular target: T10, EPHA1 (Homo sapiens, UniProt P21709)
# T10 construct: purchased Reaction Biology Corp
# Method: as §1
# EPHA8 = molecular target: T11, EPHA8 (Homo sapiens, UniProt P29322)
# T11 construct: purchased Reaction Biology Corp
# Method: as §1
# ERBB2/HER2 = molecular target: T12, ERBB2/HER2 (Homo sapiens, UniProt P04626)
# T12 construct: purchased Reaction Biology Corp
# Method: as §1
# ERN1/IRE1 = molecular target: T13, ERN1/IRE1 (Homo sapiens, UniProt O75460)
# T13 construct: purchased Reaction Biology Corp
# Method: as §1
# FLT4/VEGFR3 = molecular target: T14, FLT4/VEGFR3 (Homo sapiens, UniProt P35916)
# T14 construct: purchased Reaction Biology Corp
# Method: as §1
# GCK/MAP4K2 = molecular target: T15, GCK/MAP4K2 (Homo sapiens, UniProt Q12851)
# T15 construct: purchased Reaction Biology Corp
# Method: as §1
# GRK2 = molecular target: T16, GRK2 (Homo sapiens, UniProt P25098)
# T16 construct: purchased Reaction Biology Corp
# Method: as §1
# GSK3a = molecular target: T17, GSK3a (Homo sapiens, UniProt P49840)
# T17 construct: purchased Reaction Biology Corp
# Method: as §1
# Haspin = molecular target: T18, Haspin (Homo sapiens, UniProt Q8TF76)
# T18 construct: purchased Reaction Biology Corp
# Method: as §1
# IRAK1 = molecular target: T19, IRAK1 (Homo sapiens, UniProt P51617)
# T19 construct: purchased Reaction Biology Corp
# Method: as §1
# IRAK4 = molecular target: T20, IRAK4 (Homo sapiens, UniProt Q9NWZ3)
# T20 construct: purchased Reaction Biology Corp
# Method: as §1
# JNK1 = molecular target: T21, JNK1 (Homo sapiens, UniProt P45983)
# T21 construct: purchased Reaction Biology Corp
# Method: as §1
# KDR/VEGFR2 = molecular target: T22, KDR/VEGFR2 (Homo sapiens, UniProt P35968)
# T22 construct: purchased Reaction Biology Corp
# Method: as §1
# KHS/MAP4K5 = molecular target: T23, KHS/MAP4K5 (Homo sapiens, UniProt Q9Y4K4)
# T23 construct: purchased Reaction Biology Corp
# Method: as §1
# LIMK2 = molecular target: T24, LIMK2 (Homo sapiens, UniProt P53671)
# T24 construct: purchased Reaction Biology Corp
# Method: as §1
# MAPKAPK2 = molecular target: T25, MAPKAPK2 (Homo sapiens, UniProt P49137)
# T25 construct: purchased Reaction Biology Corp
# Method: as §1
# MLK2/MAP3K10 = molecular target: T26, MLK2/MAP3K10 (Homo sapiens, UniProt Q02779)
# T26 construct: purchased Reaction Biology Corp
# Method: as §1
# MUSK = molecular target: T27, MUSK (Homo sapiens, UniProt O15146)
# T27 construct: purchased Reaction Biology Corp
# T27 sequence (O15146 24-869): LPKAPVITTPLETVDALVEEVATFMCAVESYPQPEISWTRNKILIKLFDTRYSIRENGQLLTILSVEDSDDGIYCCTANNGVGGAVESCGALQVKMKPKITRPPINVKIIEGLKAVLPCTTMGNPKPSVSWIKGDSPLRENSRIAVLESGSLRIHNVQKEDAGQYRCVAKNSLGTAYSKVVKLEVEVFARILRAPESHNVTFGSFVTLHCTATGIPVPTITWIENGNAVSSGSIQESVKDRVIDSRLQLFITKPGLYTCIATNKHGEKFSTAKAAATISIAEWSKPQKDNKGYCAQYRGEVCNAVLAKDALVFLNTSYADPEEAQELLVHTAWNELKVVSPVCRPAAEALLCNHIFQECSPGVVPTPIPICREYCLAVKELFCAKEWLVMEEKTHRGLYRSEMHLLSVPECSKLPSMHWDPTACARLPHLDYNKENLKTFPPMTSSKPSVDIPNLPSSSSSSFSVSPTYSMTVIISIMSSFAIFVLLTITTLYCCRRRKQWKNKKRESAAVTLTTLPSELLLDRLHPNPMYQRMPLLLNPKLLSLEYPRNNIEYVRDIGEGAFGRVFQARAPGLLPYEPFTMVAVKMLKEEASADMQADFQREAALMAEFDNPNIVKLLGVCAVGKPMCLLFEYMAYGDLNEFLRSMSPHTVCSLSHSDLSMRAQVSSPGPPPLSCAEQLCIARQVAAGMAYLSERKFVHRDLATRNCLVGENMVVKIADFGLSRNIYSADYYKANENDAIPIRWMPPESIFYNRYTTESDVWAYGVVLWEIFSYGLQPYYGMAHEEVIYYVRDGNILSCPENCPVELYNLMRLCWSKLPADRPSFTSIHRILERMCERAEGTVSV
# Method: as §1
# NEK6 = molecular target: T28, NEK6 (Homo sapiens, UniProt Q9HC98)
# T28 construct: purchased Reaction Biology Corp
# Method: as §1
# P38b/MAPK11 = molecular target: T29, P38b/MAPK11 (Homo sapiens, UniProt Q15759)
# T29 construct: purchased Reaction Biology Corp
# Method: as §1
# PAK2 = molecular target: T30, PAK2 (Homo sapiens, UniProt Q13177)
# T30 construct: purchased Reaction Biology Corp
# Method: as §1
# PAK6 = molecular target: T31, PAK6 (Homo sapiens, UniProt Q9NQU5)
# T31 construct: purchased Reaction Biology Corp
# T31 sequence (Q9NQU5 whole entry): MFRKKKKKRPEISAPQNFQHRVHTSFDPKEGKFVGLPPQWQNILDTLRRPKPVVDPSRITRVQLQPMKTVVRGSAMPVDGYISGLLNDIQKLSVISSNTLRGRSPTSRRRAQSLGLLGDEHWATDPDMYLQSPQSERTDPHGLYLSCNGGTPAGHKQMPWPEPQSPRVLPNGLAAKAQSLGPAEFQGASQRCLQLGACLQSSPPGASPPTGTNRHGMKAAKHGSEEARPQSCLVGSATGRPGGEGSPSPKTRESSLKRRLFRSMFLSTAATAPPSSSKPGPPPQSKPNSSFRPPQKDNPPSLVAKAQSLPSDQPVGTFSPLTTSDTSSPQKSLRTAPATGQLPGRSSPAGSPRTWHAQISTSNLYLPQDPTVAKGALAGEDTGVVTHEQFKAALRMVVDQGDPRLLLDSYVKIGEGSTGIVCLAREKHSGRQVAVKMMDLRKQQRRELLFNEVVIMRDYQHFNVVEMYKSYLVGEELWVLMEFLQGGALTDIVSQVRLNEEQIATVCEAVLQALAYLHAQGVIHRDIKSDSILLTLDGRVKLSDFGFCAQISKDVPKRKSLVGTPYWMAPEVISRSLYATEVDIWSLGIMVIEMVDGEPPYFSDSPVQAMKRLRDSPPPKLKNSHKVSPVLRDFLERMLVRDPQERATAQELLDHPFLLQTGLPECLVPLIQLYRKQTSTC
# Method: as §1
# PKCg = molecular target: T32, PKCg (Homo sapiens, UniProt P05129)
# T32 construct: purchased Reaction Biology Corp
# Method: as §1
# PLK2 = molecular target: T33, PLK2 (Homo sapiens, UniProt Q9NYY3)
# T33 construct: purchased Reaction Biology Corp
# Method: as §1
# RSK4 = molecular target: T34, RSK4 (Homo sapiens, UniProt Q9UK32)
# T34 construct: purchased Reaction Biology Corp
# T34 sequence (Q9UK32 whole entry): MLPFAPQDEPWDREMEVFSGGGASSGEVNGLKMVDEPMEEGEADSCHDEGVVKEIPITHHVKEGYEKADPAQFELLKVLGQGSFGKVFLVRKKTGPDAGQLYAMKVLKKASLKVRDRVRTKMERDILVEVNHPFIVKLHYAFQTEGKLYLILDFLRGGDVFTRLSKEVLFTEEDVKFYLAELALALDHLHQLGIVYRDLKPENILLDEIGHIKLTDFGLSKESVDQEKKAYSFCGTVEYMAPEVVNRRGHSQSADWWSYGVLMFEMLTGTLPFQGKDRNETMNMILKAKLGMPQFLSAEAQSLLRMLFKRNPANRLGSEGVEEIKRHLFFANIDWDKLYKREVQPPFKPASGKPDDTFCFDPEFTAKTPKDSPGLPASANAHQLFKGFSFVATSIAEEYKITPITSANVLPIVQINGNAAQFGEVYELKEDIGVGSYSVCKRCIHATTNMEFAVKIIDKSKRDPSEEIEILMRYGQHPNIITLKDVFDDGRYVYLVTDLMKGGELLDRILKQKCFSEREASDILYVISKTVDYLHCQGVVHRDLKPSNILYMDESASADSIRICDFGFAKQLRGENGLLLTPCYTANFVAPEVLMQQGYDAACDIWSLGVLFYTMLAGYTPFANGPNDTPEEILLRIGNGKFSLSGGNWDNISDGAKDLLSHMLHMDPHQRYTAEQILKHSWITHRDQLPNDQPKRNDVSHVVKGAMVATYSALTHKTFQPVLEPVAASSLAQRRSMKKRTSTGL
# Method: as §1
# SNARK/NUAK2 = molecular target: T35, SNARK/NUAK2 (Homo sapiens, UniProt Q9H093)
# T35 construct: purchased Reaction Biology Corp
# Method: as §1
# SRMS = molecular target: T36, SRMS (Homo sapiens, UniProt Q9H3Y6)
# T36 construct: purchased Reaction Biology Corp
# Method: as §1
# STK21/CIT = molecular target: T37, STK21/CIT (Homo sapiens, UniProt O14578)
# T37 construct: purchased Reaction Biology Corp
# Method: as §1
# STK22D/TSSK1 = molecular target: T38, STK22D/TSSK1 (Homo sapiens, UniProt Q9BXA7)
# T38 construct: purchased Reaction Biology Corp
# Method: as §1
# STK33 = molecular target: T39, STK33 (Homo sapiens, UniProt Q9BYT3)
# T39 construct: purchased Reaction Biology Corp
# Method: as §1
# TESK1 = molecular target: T40, TESK1 (Homo sapiens, UniProt Q15569)
# T40 construct: purchased Reaction Biology Corp
# T40 sequence (Q15569 whole entry): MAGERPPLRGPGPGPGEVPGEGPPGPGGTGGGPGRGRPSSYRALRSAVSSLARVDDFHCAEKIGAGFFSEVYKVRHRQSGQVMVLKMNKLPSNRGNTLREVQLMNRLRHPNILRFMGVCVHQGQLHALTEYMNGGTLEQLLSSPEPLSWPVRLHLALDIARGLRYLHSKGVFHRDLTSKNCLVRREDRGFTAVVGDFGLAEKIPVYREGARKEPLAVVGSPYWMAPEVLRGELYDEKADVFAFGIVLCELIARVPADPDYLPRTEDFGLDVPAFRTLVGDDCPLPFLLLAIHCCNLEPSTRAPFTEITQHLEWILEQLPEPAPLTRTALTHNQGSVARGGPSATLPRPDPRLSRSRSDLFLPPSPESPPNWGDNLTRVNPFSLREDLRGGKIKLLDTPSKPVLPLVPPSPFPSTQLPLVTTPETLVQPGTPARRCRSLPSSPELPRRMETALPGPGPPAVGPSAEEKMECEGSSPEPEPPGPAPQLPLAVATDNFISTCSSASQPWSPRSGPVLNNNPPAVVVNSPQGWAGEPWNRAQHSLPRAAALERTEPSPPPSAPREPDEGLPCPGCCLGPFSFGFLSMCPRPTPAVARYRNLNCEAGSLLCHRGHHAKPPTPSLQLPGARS
# Method: as §1
# TYK1/LTK = molecular target: T41, TYK1/LTK (Homo sapiens, UniProt P29376)
# T41 construct: purchased Reaction Biology Corp
# T41 sequence (P29376 17-864): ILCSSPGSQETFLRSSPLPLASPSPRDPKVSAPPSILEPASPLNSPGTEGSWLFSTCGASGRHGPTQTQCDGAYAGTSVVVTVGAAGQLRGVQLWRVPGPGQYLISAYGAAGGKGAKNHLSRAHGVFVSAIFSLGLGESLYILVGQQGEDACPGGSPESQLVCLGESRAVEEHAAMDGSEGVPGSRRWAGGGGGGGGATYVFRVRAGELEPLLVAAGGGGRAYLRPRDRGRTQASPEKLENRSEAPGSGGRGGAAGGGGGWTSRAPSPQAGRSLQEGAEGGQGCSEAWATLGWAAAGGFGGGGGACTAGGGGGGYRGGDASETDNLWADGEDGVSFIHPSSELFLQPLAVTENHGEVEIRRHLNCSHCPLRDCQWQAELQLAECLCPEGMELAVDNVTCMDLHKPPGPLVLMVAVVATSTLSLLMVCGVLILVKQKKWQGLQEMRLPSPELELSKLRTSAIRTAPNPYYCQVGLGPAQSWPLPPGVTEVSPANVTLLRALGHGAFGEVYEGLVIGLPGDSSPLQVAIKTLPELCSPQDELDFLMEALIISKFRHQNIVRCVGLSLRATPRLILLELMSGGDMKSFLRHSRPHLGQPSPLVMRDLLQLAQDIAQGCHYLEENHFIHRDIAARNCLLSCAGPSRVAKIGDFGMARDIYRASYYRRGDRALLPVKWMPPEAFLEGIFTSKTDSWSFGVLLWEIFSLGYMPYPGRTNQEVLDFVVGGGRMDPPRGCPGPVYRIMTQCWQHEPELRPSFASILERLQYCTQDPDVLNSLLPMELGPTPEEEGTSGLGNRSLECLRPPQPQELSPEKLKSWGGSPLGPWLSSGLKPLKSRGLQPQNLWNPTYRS
# Method: as §1
# WNK2 = molecular target: T42, WNK2 (Homo sapiens, UniProt Q9Y3S1)
# T42 construct: purchased Reaction Biology Corp
# Method: as §1
# T1 sequence (P10398 whole entry): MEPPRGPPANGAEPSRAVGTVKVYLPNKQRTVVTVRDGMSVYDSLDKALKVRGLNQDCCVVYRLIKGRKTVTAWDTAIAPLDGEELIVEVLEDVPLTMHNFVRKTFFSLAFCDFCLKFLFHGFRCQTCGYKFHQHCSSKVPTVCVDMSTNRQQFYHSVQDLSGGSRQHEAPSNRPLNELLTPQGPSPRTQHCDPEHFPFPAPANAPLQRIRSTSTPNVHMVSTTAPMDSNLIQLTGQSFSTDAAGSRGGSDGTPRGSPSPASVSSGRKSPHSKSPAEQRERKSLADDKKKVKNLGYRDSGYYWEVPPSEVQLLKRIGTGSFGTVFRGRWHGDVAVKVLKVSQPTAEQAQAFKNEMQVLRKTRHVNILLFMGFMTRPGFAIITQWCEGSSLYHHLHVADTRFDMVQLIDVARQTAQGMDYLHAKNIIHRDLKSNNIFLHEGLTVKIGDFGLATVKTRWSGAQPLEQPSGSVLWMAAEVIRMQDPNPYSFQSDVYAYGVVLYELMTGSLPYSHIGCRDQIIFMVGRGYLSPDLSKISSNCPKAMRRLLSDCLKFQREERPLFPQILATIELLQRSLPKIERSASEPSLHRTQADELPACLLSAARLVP
smiles,measurement,setting,value
Cc1ccc(NC(=O)c2ccc(CN3CCN(C)CC3)c(C(F)(F)F)c2)cc1-c1cnc2sc(N)nc2c1 [6r],inhibition at 1 µM,ARAF,98.3%
same,inhibition at 1 µM,CAMK1b,5.4%
same,inhibition at 1 µM,CAMK2b,0%
same,inhibition at 1 µM,CDK17/cyclin Y (PCTK2),3.9%
same,inhibition at 1 µM,CDK2/CYCLIN E,0%
same,inhibition at 1 µM,CDK8/cyclin C,0%
same,inhibition at 1 µM,CK1g1,50.5%
same,inhibition at 1 µM,DMPK2,8%
same,inhibition at 1 µM,DYRK1B,26.2%
same,inhibition at 1 µM,EPHA1,8.2%
same,inhibition at 1 µM,EPHA8,72.3%
same,inhibition at 1 µM,ERBB2/HER2,5.4%
same,inhibition at 1 µM,ERN1/IRE1,8%
same,inhibition at 1 µM,FLT4/VEGFR3,77.8%
same,inhibition at 1 µM,GCK/MAP4K2,21.8%
same,inhibition at 1 µM,GRK2,0%
same,inhibition at 1 µM,GSK3a,7.4%
same,inhibition at 1 µM,Haspin,12.1%
same,inhibition at 1 µM,IRAK1,0%
same,inhibition at 1 µM,IRAK4,0%
same,inhibition at 1 µM,JNK1,14%
same,inhibition at 1 µM,KDR/VEGFR2,77.8%
same,inhibition at 1 µM,KHS/MAP4K5,0%
same,inhibition at 1 µM,LIMK2,39.9%
same,inhibition at 1 µM,MAPKAPK2,12.5%
same,inhibition at 1 µM,MLK2/MAP3K10,13.4%
same,inhibition at 1 µM,MUSK,10.8%
same,inhibition at 1 µM,NEK6,1%
same,inhibition at 1 µM,P38b/MAPK11,77.7%
same,inhibition at 1 µM,PAK2,5.4%
same,inhibition at 1 µM,PAK6,7.6%
same,inhibition at 1 µM,PKCg,0.7%
same,inhibition at 1 µM,PLK2,3.9%
same,inhibition at 1 µM,RSK4,1.8%
same,inhibition at 1 µM,SNARK/NUAK2,0%
same,inhibition at 1 µM,SRMS,9.2%
same,inhibition at 1 µM,STK21/CIT,5.6%
same,inhibition at 1 µM,STK22D/TSSK1,14.9%
same,inhibition at 1 µM,STK33,9.5%
same,inhibition at 1 µM,TESK1,5.3%
same,inhibition at 1 µM,TYK1/LTK,1%
same,inhibition at 1 µM,WNK2,8.7%

# From PMC9817970 (Cancers, 2022)
